Reference: the NIST ThermoML archive (doi:10.1021/je201010s)

Columns and labels:
[1] = refractive index (Na D-line) (dimensionless); wn = mass fraction of the nth substance listed; conditions: 101 kPa, Liquid, Standard Abbe refractometry
[2] = wn = mass fraction of the nth substance listed; conditions: 101 kPa, Liquid, Vibrating tube method
[3] = refractive index (Na D-line) (dimensionless); conditions: 101.33 kPa, Liquid, Standard Abbe refractometry
[4] = 101 kPa, Liquid, Vibrating tube method

CCCCn1cc[n+](C)c1.F[B-](F)(F)F [1-butyl-3-methylimidazolium tetrafluoroborate] + CC(C)O
323.15 K
Conditions | mass density, [2] [kg/m3] | refractive index, [1]
w2 = 0 | 1185.11 | 1.4155
w2 = 0.0089 | 1180.38 | 1.4152
w2 = 0.0287 | 1170.07 | 1.4143
w2 = 0.0624 | 1147.36 | 1.4122
w2 = 0.1053 | 1122.14 | 1.4106
w2 = 0.1649 | 1091.32 | 1.4077
w2 = 0.2183 | 1061.8 | 1.4071
w2 = 0.2719 | 1031.58 | 1.406
w2 = 0.324 | 1012 | 1.403
w2 = 0.4108 | 973.34 | 1.3989
w2 = 0.5167 | 927.14 | 1.3948
w2 = 0.5965 | 901.85 | 1.391
w2 = 0.6194 | 888.84 | 1.3904
w2 = 0.7697 | 835.46 | 1.3817
w2 = 0.8372 | 809.26 | 1.3749
w2 = 0.9344 | 778.75 | 1.3668

O [water]
Conditions | refractive index
[3], 298.15 K | 1.3325

CC(C)O [propan-2-ol]
Conditions | mass density, [4] [kg/m3] | refractive index, [3]
298.15 K | 780.82 | 1.3751
323.15 K | 758.67 | 1.3604

CCCCn1cc[n+](C)c1.F[B-](F)(F)F [1-butyl-3-methylimidazolium tetrafluoroborate] + O
298.15 K
Conditions | mass density, [2] [kg/m3] | refractive index, [1]
w2 = 0 | 1202.87 | 1.422
w2 = 0.0098 | 1199.53 | 1.4206
w2 = 0.0167 | 1196.97 | 1.4194
w2 = 0.0205 | 1195.79 | 1.4191
w2 = 0.029 | 1193.14 | 1.418
w2 = 0.0396 | 1189.89 | 1.4169
w2 = 0.0585 | 1184.23 | 1.4141
w2 = 0.0982 | 1173.48 | 1.4094
w2 = 0.154 | 1159.29 | 1.4033
w2 = 0.2046 | 1147.24 | 1.398
w2 = 0.2517 | 1136.64 | 1.3934
w2 = 0.3043 | 1125.12 | 1.3883
w2 = 0.3966 | 1106.01 | 1.3801
w2 = 0.5061 | 1084.29 | 1.3705
w2 = 0.6986 | 1048.69 | 1.3549
w2 = 0.8897 | 1015.75 | 1.3406

O [water] + CCCCn1cc[n+](C)c1.F[B-](F)(F)F
Conditions | refractive index
[1], 298.15 K, w1 = 1 | 1.3325

CC(C)O [propan-2-ol] + CCCCn1cc[n+](C)c1.F[B-](F)(F)F
323.15 K, w1 = 1
Conditions | mass density [kg/m3] | refractive index
[1] | – | 1.3604
[2] | 758.67 | –

O [water] + CC(C)O
Conditions | refractive index
[1], 298.15 K, w2 = 0 | 1.3325

CC(C)O [propan-2-ol] + O
298.15 K
Conditions | mass density, [2] [kg/m3] | refractive index, [1]
w1 = 0.048 | – | 1.3365
w1 = 0.0915 | 982.05 | –
w1 = 0.0987 | – | 1.3412
w1 = 0.1446 | – | 1.3458
w1 = 0.2009 | – | 1.3502
w1 = 0.2131 | 960.29 | –
w1 = 0.241 | – | 1.3536
w1 = 0.2951 | – | 1.3569
w1 = 0.3299 | 936.93 | –
w1 = 0.3387 | – | 1.3597
w1 = 0.3921 | – | 1.3622
w1 = 0.4412 | – | 1.3645
w1 = 0.4795 | 906.69 | –
w1 = 0.4805 | – | 1.366
w1 = 0.5009 | 901.31 | –
w1 = 0.5386 | – | 1.3681
w1 = 0.618 | 874.45 | –
w1 = 0.6205 | – | 1.3707
w1 = 0.6337 | – | 1.3711
w1 = 0.6782 | – | 1.3722
w1 = 0.684 | 858.73 | –
w1 = 0.7452 | – | 1.3737
w1 = 0.7861 | – | 1.3744
w1 = 0.7874 | 834.01 | –
w1 = 0.8541 | – | 1.3752
w1 = 0.8788 | 811.99 | –
w1 = 0.8959 | – | 1.3756
w1 = 0.8976 | 807.44 | –
w1 = 0.9154 | 803.01 | –
w1 = 0.9311 | 799.05 | –
w1 = 0.9492 | – | 1.3756
w1 = 0.9502 | 794.22 | –
w1 = 0.9752 | 787.71 | –
w1 = 0.9895 | 783.8 | –
w1 = 1 | 780.82 | 1.3751

CCCCn1cc[n+](C)c1.F[B-](F)(F)F [1-butyl-3-methylimidazolium tetrafluoroborate]
Conditions | mass density, [4] [kg/m3] | refractive index, [3]
298.15 K | 1202.87 | 1.422
323.15 K | 1185.11 | 1.4155
